Measured values from patent publication US8227601B2, “Diaryl-purines, azapurines and -deazapurines as non-nucleoside reverse transcriptase inhibitor for treatment of HIV” (priority 2005, dated 2012).

Experiments:
Test in all cases: microbe, parasite or virus in culture
Format in all cases: cell-based, human immunodeficiency virus type 1 (HIV-1)
HIV-1 Y188L = conditions: Human immunodeficiency virus 1, read-out: EC50 Y188L (nM)
wild type HIV-1 = conditions: Human immunodeficiency virus 1, Hela-JC53, read-out: EC50 WT (nM)
HIV-1 Y181C = conditions: Human immunodeficiency virus 1, read-out: EC50 Y181C (nM), Y181C mutant
HIV-1 L1001-K103N = conditions: Human immunodeficiency virus 1, read-out: EC50 L1001-K103N (nM), L1001-K103N mutant

Structure (SMILES) | EC50 (HIV-1 Y188L) [nM] | EC50 (wild type HIV-1) [nM] | EC50 (HIV-1 Y181C) [nM] | EC50 (HIV-1 L1001-K103N) [nM]
Cc1cc(C)c(Sc2nc(Nc3ccc(C#N)cc3)nc3cc[nH]c23)c(C)c1 [Cpd 51] | < 10 | < 10 | < 10 | 10 to 100
Cc1cc(C2CC2)cc(C)c1Oc1nc(Nc2ccc(C#N)cc2)nc2cc[nH]c12 [Cpd 52] | < 10 | < 10 | < 10 | < 10
Cc1cc(C)c(Sc2nc(Nc3ccc(C#N)cc3)nc3c(Cl)c[nH]c23)c(C)c1 [Cpd 53] | 10 to 100 | < 10 | 10 to 100 | > 100
Cc1cc(C)c(Sc2nc(Nc3ccc(C#N)cc3)nc3c(Cl)cn(Cc4ccccc4)c23)c(C)c1 [Cpd 54] | 10 to 100 | < 10 | 10 to 100 | > 100
Cc1cc(C)c(Sc2nc(Nc3ccc(C#N)cc3)nc3c(Br)c[nH]c23)c(C)c1 [Cpd 55] | 10 to 100 | < 10 | 10 to 100 | > 100
Cc1cc(C#N)cc(C)c1Oc1nc(Nc2ccc(C#N)cc2)nc2c(Cl)cn(Cc3ccccc3)c12 [Cpd 56] | 10 to 100 | 10 to 100 | 10 to 100 | 10 to 100
Cc1cc(C)c(Oc2nc(Nc3ccc(C#N)cc3)nc3ccn(C)c23)c(C)c1 [Cpd 57] | < 10 | < 10 | < 10 | < 10
Cc1cc(Br)cc(C)c1Oc1nc(Nc2ccc(C#N)cc2)nc2ccn(Cc3ccccc3)c12 [Cpd 58] | > 100 | 10 to 100 | 10 to 100 | > 100
Cc1cc(C)c(Oc2nc(Nc3ccc(C#N)cc3)nc3c(Cl)cn(C)c23)c(C)c1 [Cpd 59] | 10 to 100 | 10 to 100 | 10 to 100 | 10 to 100
CC(=O)c1cc(C)c(Oc2nc(Nc3ccc(C#N)cc3)nc3ccn(Cc4ccccc4)c23)c(C)c1 [Cpd 60] | 10 to 100 | < 10 | < 10 | 10 to 100
CC(=O)c1cc(C)c(Oc2nc(Nc3ccc(C#N)cc3)nc3cc[nH]c23)c(C)c1 [Cpd 61] | < 10 | < 10 | < 10 | < 10
Cc1cc(Cl)cc(C)c1Oc1nc(Nc2ccc(C#N)cc2)nc2c(Cl)cn(C)c12 [Cpd 62] | < 10 | < 10 | < 10 | < 10
Cc1cc(Cl)cc(C)c1Oc1nc(Nc2ccc(C#N)cc2)nc2ccn(Cc3ccccc3)c12 [Cpd 63] | > 100 | 10 to 100 | 10 to 100 | > 100
Cc1cc(C)c(Oc2nc(Nc3ccc(C#N)cc3)nc3ccn(Cc4ccccc4)c23)c(C)c1 [Cpd 64] | > 100 | < 10 | 10 to 100 | > 100
Cc1cccc(C)c1Oc1nc(Nc2ccc(C#N)cc2)nc2cc[nH]c12 [Cpd 65] | < 10 | < 10 | < 10 | > 100
Cc1cc(Cl)cc(C)c1Oc1nc(Nc2ccc(C#N)cc2)nc2cc[nH]c12 [Cpd 66] | < 10 | < 10 | < 10 | < 10
CC(=O)c1cc(C)c(Oc2nc(Nc3ccc(C#N)cc3)nc3c(Cl)c[nH]c23)c(C)c1 [Cpd 67] | 10 to 100 | < 10 | < 10 | < 10
Cc1cc(C#N)cc(C)c1Oc1nc(Nc2ccc(C#N)cc2)nc2ccn(C)c12 [Cpd 68] | < 10 | < 10 | < 10 | < 10
Cc1cc(C#N)cc(C)c1Oc1nc(Nc2ccc(C#N)cc2)nc2c(Cl)cn(C)c12 [Cpd 69] | < 10 | < 10 | < 10 | < 10
Cc1cc(C#N)cc(C)c1Oc1nc(Nc2ccc(C#N)cc2)nc2c(Br)cn(C)c12 [Cpd 70] | < 10 | < 10 | < 10 | < 10
Cc1cc(Br)cc(Cl)c1Oc1nc(Nc2ccc(C#N)cc2)nc2cc[nH]c12 [Cpd 71] | < 10 | < 10 | < 10 | < 10
